Assay results: PubChem BioAssay AID1963862 (Molecular Pharmacology Branch, DTP, NCI, 2024)

Tested on: KRAS patient-derived spheroids with HUVEC/MSC, viability
Experiment: Anticancer human tumor 941728-121-R-J1-PDC patient-derived lung adenocarcinoma cell line growth inhibition [KRAS2]
Details: for IC50: curve of first compound; for viability, T/C: stronger effect = lower value
Method in brief: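 Combination screen of spheroid viability in tumor-cell co-cultures with endothelial (HUVEC) and mesenchymal stem cell stroma. Each agent was tested in half-log dilutions, topping at clinical Cmax or at 10 microM without a known Cmax.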

[1] = second compound 0.0316 µM, first compound 0.01 µM
[2] = second compound 0.0316 µM, first compound 0.0316 µM
[3] = second compound 0.0316 µM, first compound 0.1 µM
[4] = second compound 0.1 µM, first compound 0.01 µM
[5] = second compound 0.1 µM, first compound 0.0316 µM
[6] = second compound 0.1 µM, first compound 0.1 µM
[7] = second compound 0.1 µM, first compound 0.316 µM
[8] = second compound 0.1 µM, first compound 1 µM
[9] = second compound 0.316 µM, first compound 0.01 µM
[10] = second compound 0.316 µM, first compound 0.0316 µM
[11] = second compound 0.316 µM, first compound 0.1 µM
[12] = second compound 0.316 µM, first compound 0.316 µM
[13] = second compound 0.316 µM, first compound 1 µM
[14] = second compound 1 µM, first compound 0.01 µM
[15] = second compound 1 µM, first compound 0.0316 µM
[16] = second compound 1 µM, first compound 0.1 µM
[17] = second compound 1 µM, first compound 0.316 µM
[18] = second compound 1 µM, first compound 1 µM
[19] = second compound 3.16 µM, first compound 0.01 µM
[20] = second compound 3.16 µM, first compound 0.0316 µM
[21] = second compound 3.16 µM, first compound 0.1 µM
[22] = second compound 3.16 µM, first compound 0.316 µM
[23] = second compound 3.16 µM, first compound 1 µM
[24] = second compound 0.1 µM, first compound 0.000316 µM
[25] = second compound 0.1 µM, first compound 0.001 µM
[26] = second compound 0.1 µM, first compound 0.00316 µM
[27] = second compound 0.316 µM, first compound 0.000316 µM
[28] = second compound 0.316 µM, first compound 0.001 µM
[29] = second compound 0.316 µM, first compound 0.00316 µM
[30] = second compound 1 µM, first compound 0.000316 µM
[31] = second compound 1 µM, first compound 0.001 µM
[32] = second compound 1 µM, first compound 0.00316 µM
[33] = second compound 3.16 µM, first compound 0.000316 µM
[34] = second compound 3.16 µM, first compound 0.001 µM
[35] = second compound 3.16 µM, first compound 0.00316 µM
[36] = second compound 10 µM, first compound 0.00316 µM
[37] = second compound 10 µM, first compound 0.01 µM
[38] = second compound 10 µM, first compound 0.0316 µM
[39] = second compound 10 µM, first compound 0.1 µM
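Also: spheroids exposed to agents for seven days before readout.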

Row | SMILES | IC50 (second compound 0.1 µM) [nM] | IC50 (second compound 0.316 µM) [nM] | IC50 (second compound 1 µM) [nM] | IC50 (second compound 3.16 µM) [nM] | viability, T/C [4] [%] | viability, T/C [5] [%] | viability, T/C [6] [%] | viability, T/C [9] [%] | viability, T/C [10] [%] | viability, T/C [11] [%] | viability, T/C [14] [%] | viability, T/C [15] [%] | viability, T/C [16] [%] | viability, T/C [19] [%] | viability, T/C [20] [%] | viability, T/C [21] [%] | viability, T/C [26] [%] | viability, T/C [29] [%] | viability, T/C [32] [%] | viability, T/C [35] [%] | other results
1 | CC1COCCN1c1cc(-c2ccnn2C)c2ccnc(-c3ccn[nH]3)c2n1 (stereo not given) + C=CC(=O)N1CCN(c2nc(OCC3CCCN3C)nc3c2CCN(c2cccc4cccc(C)c24)C3)CC1CC#N | < 10 | < 10 | < 10 | < 10 | 26.5 | 28.3 | 19.9 | 23 | 22.7 | 25.9 | 22.9 | 24.2 | 19 | 2.14 | 10.7 | 2.17 |  |  |  |  | IC50 (second compound 0.0316 µM): < 10 nM; viability, T/C [1]: 26.5%; viability, T/C [2]: 24.8%; viability, T/C [3]: 19.9%; viability, T/C (second compound 0.0316 µM, first compound 0.316 µM): 19.6%; viability, T/C (second compound 0.0316 µM, first compound 1 µM): 16.9%; viability, T/C (second compound 0.0316 µM, first compound 3.16 µM): 14.6%; viability, T/C [7]: 18.5%; viability, T/C [8]: 16.6%; viability, T/C (second compound 0.1 µM, first compound 3.16 µM): 13.3%; viability, T/C [12]: 17.6%; viability, T/C [13]: 16.1%; viability, T/C (second compound 0.316 µM, first compound 3.16 µM): 12.8%; viability, T/C [17]: 18.1%; viability, T/C [18]: 18.9%; viability, T/C (second compound 1 µM, first compound 3.16 µM): 15.4%; viability, T/C [22]: 1.73%; viability, T/C [23]: 6.37%; viability, T/C (second compound 3.16 µM, first compound 3.16 µM): 6%
2 | CN(C)C/C=C/C(=O)Nc1cc2c(Nc3ccc(F)c(Cl)c3)ncnc2cc1O[C@H]1CCOC1 + C=CC(=O)N1CCN(c2nc(OCC3CCCN3C)nc3c2CCN(c2cccc4cccc(C)c24)C3)CC1CC#N | < 0.316 | < 0.316 | < 0.316 | < 0.316 | 20.1 | 20.4 | 18.6 | 21.5 | 20.5 | 18.3 | 19.1 | 19.2 | 21.2 | 0.19 | 0.45 | 1.8 | 18.8 | 21.4 | 20.9 | 0.46 | IC50 (second compound 0.0316 µM): < 0.316 nM; viability, T/C (second compound 0.0316 µM, first compound 0.000316 µM): 22.7%; viability, T/C (second compound 0.0316 µM, first compound 0.001 µM): 22.4%; viability, T/C (second compound 0.0316 µM, first compound 0.00316 µM): 22.2%; viability, T/C [1]: 23.3%; viability, T/C [2]: 20.5%; viability, T/C [3]: 20.6%; viability, T/C [24]: 21.3%; viability, T/C [25]: 19.3%; viability, T/C [27]: 21.1%; viability, T/C [28]: 20.9%; viability, T/C [30]: 21.1%; viability, T/C [31]: 21.2%; viability, T/C [33]: 1.16%; viability, T/C [34]: 0.2%
3 | CCN1CCN(Cc2ccc(Nc3ncc(F)c(-c4cc(F)c5nc(C)n(C(C)C)c5c4)n3)nc2)CC1 + C=CC(=O)N1CCN(c2nc(=O)n(-c3c(C)ccnc3C(C)C)c3nc(-c4c(O)cccc4F)c(F)cc23)C(C)C1 | < 3.16 | < 3.16 | < 3.16 | < 3.16 | 18.3 | 16.5 | 15.9 | 18.1 | 17.1 | 16.8 | 22.2 | 19.5 | 17.1 | 24.2 | 19.6 | 18.9 | 17.4 | 19.1 | 22.2 | 22.7 | IC50 (second compound 10 µM): < 3.16 nM; viability, T/C [7]: 15.1%; viability, T/C [8]: 18.5%; viability, T/C [12]: 14.7%; viability, T/C [13]: 15.9%; viability, T/C [17]: 17.2%; viability, T/C [18]: 19.8%; viability, T/C [22]: 21.9%; viability, T/C [23]: 19.2%; viability, T/C [36]: 27.8%; viability, T/C [37]: 29.9%; viability, T/C [38]: 25%; viability, T/C [39]: 29.8%; viability, T/C (second compound 10 µM, first compound 0.316 µM): 27.9%; viability, T/C (second compound 10 µM, first compound 1 µM): 16.3%
4 | CN(C)C/C=C/C(=O)Nc1cc2c(Nc3ccc(F)c(Cl)c3)ncnc2cc1O[C@H]1CCOC1 + COc1cc2nc(C)nc(NC(C)c3cc(N)cc(C(F)(F)F)c3)c2cc1OC1CCOC1 | 0.885 | < 0.316 | < 0.316 | < 0.316 | 44.4 | 43.4 | 49.3 | 30.5 | 31.1 | 36.4 | 34.3 | 33.3 | 34.4 | 15.4 | 14.8 | 15.8 | 42.9 | 32.5 | 28.9 | 18.3 | IC50 (second compound 10 µM): < 0.316 nM; viability, T/C [24]: 60.5%; viability, T/C [25]: 50.3%; viability, T/C [27]: 37.2%; viability, T/C [28]: 32.5%; viability, T/C [30]: 40.6%; viability, T/C [31]: 34.3%; viability, T/C [33]: 20.1%; viability, T/C [34]: 20.4%; viability, T/C (second compound 10 µM, first compound 0.000316 µM): 19.4%; viability, T/C (second compound 10 µM, first compound 0.001 µM): 15.2%; viability, T/C [36]: 16%; viability, T/C [37]: 14.6%; viability, T/C [38]: 14.7%; viability, T/C [39]: 16.4%
